Test results from US4218443A, “Polyether ionophores as antiobesity and hypotriglyceridemic agents” (Hoffmann-La Roche Inc., priority 1979, dated 1980).

Assays:
[1] = target: T1, pancreatic lipase (Rattus norvegicus, UniProt P27657); test: In vitro pancreatic lipase screen ([14C]-triolein assay); assay type: biochemical; conditions: read-out: Pancreatic Lipase Activity I50
T1 construct: stimulated to release pancreatic proteins by addition of 10^-5 M carbachol; from tissue; host or cells: pancreatic lobules of fasted Charles River female rats; released pancreatic juice, centrifuged
T1 sequence (P27657 17-465): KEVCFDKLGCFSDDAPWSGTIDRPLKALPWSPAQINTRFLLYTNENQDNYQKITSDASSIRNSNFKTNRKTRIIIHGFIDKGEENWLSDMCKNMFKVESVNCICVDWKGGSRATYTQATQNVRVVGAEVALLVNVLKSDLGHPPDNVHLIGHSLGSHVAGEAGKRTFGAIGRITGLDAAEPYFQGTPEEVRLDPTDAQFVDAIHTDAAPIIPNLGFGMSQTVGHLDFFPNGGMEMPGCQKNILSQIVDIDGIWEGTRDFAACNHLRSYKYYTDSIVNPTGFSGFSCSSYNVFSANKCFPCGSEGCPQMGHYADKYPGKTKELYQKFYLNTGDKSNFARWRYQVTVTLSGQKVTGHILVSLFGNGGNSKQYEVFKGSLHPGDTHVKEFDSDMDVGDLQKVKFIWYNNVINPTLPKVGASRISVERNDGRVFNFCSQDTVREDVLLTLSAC
Experimental: The method for assaying pacreatic lipase in vitro using [^14 C]-triolein was based on the method of Garfinkel and Schotz for lipoprotein lipase, [A. S. Garfinkel and M. C. Schotz (1972). […] Glycerol tri[1-^14 C]oleate (32 mM) was emulsified in 0.2 M Tris-HCl pH 8 containing 0.15 M NaCl, bovine serum albumin (15 mg/ml) and sodium taurocholate (1.4 mM) by sonication for three, one min intervals at 80 watts. Final assay volume was 1.0 ml. The reaction was initiated by the addition of enzyme and was allowed to proceed for 10 min. The reaction was linear for up to 20 min. The liberated free fatty acids were extracted into 0.1 M KOH and quantitated in a liquid scintillation counter using 2,5-bis-2-(5-tertbutylbenzoxazolyl)-tniophene (BBOT) scintillation fluid (Yorktown Research, South Hackensack, N.J.).
Ionophores were added to the above assay as solutions in either 90% ethanol or water, pH 8; 90% ethanol had no effect on the enzyme activity assayed by either method.

[2] = target: T2, human pancreatic lipase (Homo sapiens, UniProt P16233); test: In vitro titrimetric (Radiometer pH-stat) pancreatic lipase assay, Dixon plots; assay type: biochemical; conditions: Dixon plots
T2 construct: Human pancreatic juice was obtained from a patient with acute pancreatitis; from tissue; host or cells: human pancreatic juice from the cannulated duct of a patient with acute pancreatitis; gift of Dr. George Nardi, Massachusetts General Hospital
T2 sequence (P16233 17-465): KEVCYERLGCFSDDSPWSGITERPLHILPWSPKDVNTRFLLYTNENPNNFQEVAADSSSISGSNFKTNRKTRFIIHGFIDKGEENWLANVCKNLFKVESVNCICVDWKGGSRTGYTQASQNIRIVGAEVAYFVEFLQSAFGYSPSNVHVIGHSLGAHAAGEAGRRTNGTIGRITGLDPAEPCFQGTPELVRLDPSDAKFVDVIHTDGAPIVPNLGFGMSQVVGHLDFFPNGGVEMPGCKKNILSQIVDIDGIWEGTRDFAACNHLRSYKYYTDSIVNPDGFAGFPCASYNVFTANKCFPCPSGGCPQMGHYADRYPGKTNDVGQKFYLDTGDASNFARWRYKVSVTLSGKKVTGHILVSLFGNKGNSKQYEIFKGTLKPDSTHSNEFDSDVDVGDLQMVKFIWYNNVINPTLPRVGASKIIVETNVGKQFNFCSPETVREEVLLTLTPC

[3] = system: meal-fed Charles River rats; test: Food consumption and serum parameters in meal-fed rats (in vivo fatty acid synthesis experiments); set-up: species or system Charles River rat; conditions: sodium salt, mean ± SE
Experimental: In the following examples, female rats (Charles River CD strain, 180-200 g) were housed individually in wire bottom cages in a temperature (22°) and light (12 hr light and 12 hr dark) regulated room. They had free access to Purina Rodent Chow and water.
Faster enzymatic procedure for serum triglycerides, Clinical Chemistry, 21: 1983-1985], cholesterol, [C. C. Allain, L. Poon, S. G. Chan, W. Richmond and P. Fu (1974). Enzymatic determination of total serum cholesterol, Clinical Chemistry, 20: 470-475] and glucose, [R. Konig, H. Dauwalder and R. Richterich (1971). Vergleichende Bestimmunogen der Uringlucosekonzentration mit der Polarimetrie und einer enzymatischen Methode (Hexokinase/Glucose-6-Phosphat-Dehydrogenase), Schweiz. Med. Wschr., 101: 860-866] by enzymatic procedures.

[4] = system: rats in the five day two hour meal model; test: Five day two hour meal model; assay type: in vivo, rat; conditions: sodium salt, mean ± SE
Experimental: A five day two hour meal model was developed to evaluate the effects of lipase inhibitors in vivo. [^14 C]-triolein and [^3 H]cholesterol were included in the 10% corn oil meal on days one and five. Test compound was administered as a dietary admix. Compound was first mixed into the fat component of the diet before the dry components were added. Food consumption and body weight gain were determined. Feces were collected from day two to day four. Rats were killed on day five and the small intestine and contents were removed for analysis.

[5] = target: rat epididyml lipoprotein lipase (Rattus norvegicus, UniProt Q06000); conditions: read-out: I50 lipoprotein lipase; rat epididyml lipoprotein lipase in vitro
Chain of rat epididyml lipoprotein lipase (Q06000 28-474): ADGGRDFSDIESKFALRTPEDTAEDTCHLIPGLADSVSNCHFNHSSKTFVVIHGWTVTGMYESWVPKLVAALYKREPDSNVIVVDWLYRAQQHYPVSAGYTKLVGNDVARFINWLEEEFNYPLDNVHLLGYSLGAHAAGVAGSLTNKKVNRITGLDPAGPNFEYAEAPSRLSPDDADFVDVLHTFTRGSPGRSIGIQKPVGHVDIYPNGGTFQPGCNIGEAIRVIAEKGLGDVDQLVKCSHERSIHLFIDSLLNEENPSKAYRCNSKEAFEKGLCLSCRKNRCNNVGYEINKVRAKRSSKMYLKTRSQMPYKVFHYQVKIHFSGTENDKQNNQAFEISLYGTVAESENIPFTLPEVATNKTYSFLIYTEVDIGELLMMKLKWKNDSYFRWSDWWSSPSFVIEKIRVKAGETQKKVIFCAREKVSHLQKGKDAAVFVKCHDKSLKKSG
Experimental: Acetone powders of Zucker rat epididyml adipose tissue were the source of lipoprotein lipase and were prepared by the method of Garfinkel and Schotz, [A. S. Garfinkel and M. C. […] The adipose tissue was removed quickly and immediately homogenized in acetone (15 ml per gram of adipose tissue) in a Waring Blender at high speed for one minute, then filtered quickly through a coarse fritted glass funnel. The extract was washed twice with acetone (3 ml per gram of adipose tissue), then washed two more times with anhydrous ethyl ether (3 ml per gram adipose tissue). The powder was dried under vacuum for one hour, weighed and stored desiccated at -70° C. Approximately 0.013 g acetone powder was obtained per gram of epididyml adipose tissue. The lipoprotein lipase was extracted from the acetone powder into 0.05 M NH4 OH-NH4 Cl buffer, pH 8.6. The extracts were prepared by homogenizing the acetone powder in buffer in a TenBroeck glass tissue grinder in ice. The homogenate was centrifuged at 2,000×g for 20 min to remove insoluble material.
Ionophores were added to the above assays as solutions in either water or DMSO.

[6] = system: intestinal absorption of triglycerides (corn oil); test: In vivo absorption of triglycerides (corn oil absorption); conditions: Experiment 2, sodium

CC[C@@H](C(=O)[C@@H](C)[C@@H](O)[C@H](C)CCc1c([N+](=O)[O-])cc(C)c(O)c1[N+](=O)[O-])[C@H]1O[C@](CC)([C@H]2CC[C@](O)(CC)[C@H](C)O2)C[C@@H]1C [Dinitrodescarboxylasalocid]
IC50 [1]: 400 µM
type of inhibition from Dixon plots [2]: suggested competitive inhibition
Ki ([2]; in vitro Radiometer assay, read-out: inhibition constant (Ki)): 20 µM
Food Consumption ([3]; 60 mg/kg i.p.): 15.7 ± 0.4 g
Food Consumption ([3]; Experiment 1, 240 mg/kg p.o.): 11.0 ± 0.8 g
Serum Cholesterol ([3]; Experiment 1, 240 mg/kg p.o.): 85 ± 7 mg/100 ml
Serum Glucose ([3]; Experiment 1, 240 mg/kg p.o.): 194 ± 9 mg/100 ml
Serum Triglycerides ([3]; Experiment 1, 240 mg/kg p.o.): 42 ± 5 mg/100 ml
Food Consumption ([3]; Experiment 2, 60 mg/kg p.o.): 8.8 ± 1.0 g
Serum Cholesterol ([3]; Experiment 2, 60 mg/kg p.o.): 84 ± 3 mg/100 ml
Serum Glucose ([3]; Experiment 2, 60 mg/kg p.o.): 165 ± 6 mg/100 ml
Serum Triglycerides ([3]; Experiment 2, 60 mg/kg p.o.): 40 ± 4 mg/100 ml
Food Consumption ([3]; Experiment 2, 120 mg/kg p.o.): 10.7 ± 1.0 g
Serum Cholesterol ([3]; Experiment 2, 120 mg/kg p.o.): 82 ± 6 mg/100 ml
Serum Glucose ([3]; Experiment 2, 120 mg/kg p.o.): 168 ± 7 mg/100 ml
Serum Triglycerides ([3]; Experiment 2, 120 mg/kg p.o.): 31 ± 2 mg/100 ml
Food Consumption ([3]; Experiment 2, 240 mg/kg p.o.): 9.4 ± 1.1 g
Serum Cholesterol ([3]; Experiment 2, 240 mg/kg p.o.): 76 ± 7 mg/100 ml
Serum Glucose ([3]; Experiment 2, 240 mg/kg p.o.): 183 mg/100 ml
Serum Triglycerides ([3]; Experiment 2, 240 mg/kg p.o.): 31 ± 5 mg/100 ml
3H-Cholesterol in Feces ([4]; 120 mg/kg dietary admix): 28.6 ± 3.9 % of ingested
14C in Feces ([4]; 120 mg/kg dietary admix): 2.4 ± 0.7 % of ingested
Body weight gain (BWG) ([4]; 120 mg/kg dietary admix): -1 ± 3 g
Fat Absorption ([4]; 120 mg/kg dietary admix): 95.6 ± 0.5%
Intestinal Cholsterol Esters ([4]; 120 mg/kg): 7.7 ± 1.2 % of 14C-lipid
Intestinal Contents 3H-cholesterol ([4]; 120 mg/kg): 1.7 ± 0.2 % ingested
Intestinal Contents 14C-lipid ([4]; 120 mg/kg): 0.75 ± 0.10 % ingested
Intestinal Free Fatty Acids ([4]; 120 mg/kg): 61.9 ± 1.3 % of 14C-lipid
Intestinal Mono- and Diglyceride ([4]; 120 mg/kg): 15.3 ± 1.3 % of 14C-lipid
Intestinal Triglyceride ([4]; 120 mg/kg): 9.1 ± 0.8 % of 14C-lipid
3H-Cholesterol in Feces ([4]; 240 mg/kg dietary admix): 34.1 ± 2.6 % of ingested
14C in Feces ([4]; 240 mg/kg dietary admix): 4.4 ± 0.8 % of ingested
Body weight gain (BWG) ([4]; 240 mg/kg dietary admix): -3 ± 2 g
Fat Absorption ([4]; 240 mg/kg dietary admix): 92.8 ± 0.7%
Food Consumption ([4]; 240 mg/kg dietary admix): 7.2 ± 0.5 g/day
Intestinal Cholsterol Esters ([4]; 240 mg/kg): 7.1 ± 0.8 % of 14C-lipid
Intestinal Contents 3H-cholesterol ([4]; 240 mg/kg): 1.2 ± 0.2 % ingested
Intestinal Contents 14C-lipid ([4]; 240 mg/kg): 0.66 ± 0.13 % ingested
Intestinal Free Fatty Acids ([4]; 240 mg/kg): 59.6 ± 2.6 % of 14C-lipid
Intestinal Mono- and Diglyceride ([4]; 240 mg/kg): 15.9 ± 0.9 % of 14C-lipid
Intestinal Triglyceride ([4]; 240 mg/kg): 10.3 ± 0.7 % of 14C-lipid
IC50 [5]: 270 µM
Area under curve (corn oil absorption) ([6]; 56 mg/kg p.o.): 1213
Area under curve, % of control ([6]; 56 mg/kg p.o.): 86 % of control
Area under curve (corn oil absorption) ([6]; 120 mg/kg p.o.): 1072
Area under curve, % of control ([6]; 120 mg/kg p.o.): 76 % of control
Area under curve (corn oil absorption) ([6]; 240 mg/kg p.o.): 564
Area under curve, % of control ([6]; 240 mg/kg p.o.): 40 % of control
